Source: paper PMC9405102, “Targeted Modification and Structure-Activity Study of GL-29, an Analogue of the Antimicrobial Peptide Palustrin-2ISb” (Antibiotics, 2022)
≈ marks a conversion by molar mass, not a printed value. Like-named read-outs stand apart in the source and are kept apart here. Where a SMILES comes first, the peptide text is derived from it. Where no end group is shown, it is not given here.

How the values were obtained:
[1] = tested on: horse erythrocytes; assay type: cell-based; conditions: red cells of horse, 2 h
Experimental: The haemolysis assays were performed by incubating prewashed erythrocyte suspension obtained from fresh defibrinated horse blood (TCS Biosciences Ltd., Buckingham, UK) with a range of peptides at final concentrations from 512 to 1 μM, for 2 h at 37 °C. The red cell suspensions were washed with phosphate-buffered saline (PBS) until the supernatant was clear and then diluted with PBS to form a 2% cell suspension. Peptides were 2-fold diluted by the 2% cell suspension to reach the final concentration range from 512 to 1 μM. The haemolysis of the cell suspensions with either 1% (v/v) Triton X-100 or PBS, were considered as positive controls and negative controls, respectively. After incubation, the extent of haemolysis was determined by measuring the absorbance of the supernatant from each sample at 570 nm with a Synergy HT plate reader (BioTek, USA).
(§1) Data were analysed using Prism (Version 8.2.1; GraphPad Software, Inc, San Diego, CA, USA). Error bars in the graphs represented standard errors of means (SEM) of nine repeats from three independent tests. The statistical significance was calculated using two-way ANOVA and is indicated as ns (non-significant difference), * (p < 0.05), ** (p < 0.01), *** (p < 0.001), ****(p < 0.0001). The HC10, HC50 and IC50 values were calculated using the online tool AAT Bioquest (https://www.aatbio.com/index.html, accessed on 6 May 2022).

[2] = tested on: K. pneumoniae (ATCC CRM 43816); assay type: cell-based, Klebsiella pneumoniae
Experimental: The MBIC and MBEC assays were performed to measure the inhibition and eradication of bacterial biofilm in the presence of different concentrations of peptides. Gram-positive bacteria were inoculated in Luria–Bertani (LB) broth at 37 °C overnight whereas Gram-negative bacteria were inoculated in tryptic soy broth (TSB), and then sub-cultured until reaching the logarithmic growth phase by measuring the OD values at a wavelength of 550nm. For the MBIC assay, 99 µL of diluted bacterial suspension (5 × 10^5 CFU/mL) was mixed with 1 µL of prepared peptide solutions in the wells of a round-bottomed 96-well plate, achieving the final concentrations from 512 to 1 µM, and then incubated at 37 °C for 24 h in a shaking incubator at 200 revolutions per minute (rpm). After this, the plate was washed twice by PBS and fixed with methanol for 30 min. For MBEC assay, 100 µL of diluted bacterial suspension (5 × 10^5 CFU/mL) was seeded into a round-bottomed 96-well plate and incubated at 37 °C for 24 h in a shaking incubator at 200 rpm to obtain mature biofilm. After this, plates were washed twice by PBS and incubated with different concentrations of peptide solution from 512 to 1 µM at 37 °C for 24 h. Afterwards, the plate was washed twice with PBS and fixed with methanol for 30 min. Then, both MBIC and MBEC plates were stained by 130 μL of 0.1% (g/v) crystal violet solutions for 30 min and washed with PBS until no apparent staining was observed. Evaporating crystal violet stains were dissolved by 33% (v/v) acetic acid, and the absorbance values were measured by a Synergy HT Microplate Reader (BioTek, Minneapolis, MN, USA) set to 595 nm. The minimum concentration that inhibited the formation of biofilm was defined when compared to the negative control group, as the MBIC. The minimum concentration that eradicated the biofilm was defined, when compared to the negative control group, as the MBEC. The biofilm assays were performed in triplicate.

[3] = tested on: human keratinocyte cell line, HaCaT; assay type: cell-based; conditions: 24 h
Experimental: (§2) The proliferative inhibition effect of GL-29 and its analogues were assessed by MTT assay as described in a previous study. HaCaT cell line (human keratinocytes) and four cancer cell lines, U251MG (human glioblastoma astrocytoma cell line), HCT116 (human colon cancer cell line), H157 (human non-small lung cancer cell line) and H838 (human lung carcinoma cancer cell line), were used in this assay. A total of 8000 cells/per well were seeded in the 96-well plate for 24 h and then treated with peptides at the concentration from 100 μM to 100 nM for 24 h. In this assay, 1% Triton X-100 and PBS were set as a positive and negative control, respectively. After which, the formazan was dissolved in DMSO and the OD value was detected by use of a Synergy HT plate reader (BioTek, Minneapolis, MN, USA) at λ = 570 nm.
as §1

[4] = tested on: S. aureus (ATCC CRM 6538); test: SYTOX Green dye uptake membrane permeability assay; assay type: cell-based, Staphylococcus aureus; conditions: 4 μM peptide, 2 h
Experimental: Bacteria were inoculated into TSB medium (Gram-positive bacteria) or LB medium (Gram-negative bacteria) at 37 °C overnight, and then sub-cultured at 37 °C for about 2.5 h. Subsequently, the cell cultures were centrifuged at 1000× g at 4 °C for 10 min to collect bacteria cells at the bottom. After the cells were washed twice with 5% TSB or 5% LB in 0.85% NaCl solution, they were resuspended with 5% TSB or 5% LB in 0.85% NaCl solution to obtain a cell concentration of 1 × 10^8 CFU /mL by measuring the optical density (OD) value at 590 nm (Gram-positive bacteria: 0.68–0.72, Gram-negative bacteria: 0.65–0.7). The cell suspensions were then mixed with peptides at a range of concentrations, according to the MIC of antimicrobial assays, in a black 96 well plate and incubated for 2 h at 37 °C. After the incubation, the cells were stained with SYTOX^TM Green Nucleic Acid Stain (Thermo Fisher Scientific, Waltham, MA, USA) dissolved in 5% TSB in 0.85% NaCl to a final concentration of 5 μM and placed in a shaking incubator for 5 min avoiding from light. Bacterial cells treated with 16 μM melittin were used as positive control. The fluorescence intensity was measured with a Synergy HT plate reader (BioTek, USA) at excitation and emission wavelengths of 485 and 528 nm, respectively.

[5] = tested on: Staphylococcus aureus (S. aureus); parameters: method as in PMID 21911019; conditions: cited from earlier work
[6] = tested on: U251MG; test: MTT antiproliferative assay; assay type: cell-based, human
Experimental: as §2, §1

[7] = tested on: H838; test: MTT antiproliferative assay; assay type: cell-based, human
Experimental: as §2, §1

[8] = tested on: HCT116; test: MTT antiproliferative assay; assay type: cell-based, human
Experimental: as §2, §1

[9] = tested on: H157; test: MTT antiproliferative assay; assay type: cell-based, human; conditions: 24 h
Experimental: as §2, §1

| Compound | HC10 [1] [µM] | HC50 [1] [µM] | MBEC ([2]; ATCC CRM 43816, 24 h) [µM] | MBIC ([2]; ATCC CRM 43816, 24 h) [µM] | IC50 [3] [µM] | membrane permeabilisation (SYTOX Green uptake) [4] [%] | MIC [5] [µM] | MBEC ([2]; biofilm eradication, K. pneumoniae (ATCC CRM 43816)) [µM] | MBIC ([2]; biofilm formation, K. pneumoniae (ATCC CRM 43816)) [µM] | inhibition of proliferative activity ([6]; 100 µM (highest concentration)) | inhibition of proliferative activity ([7]; H838, 100 µM (highest concentration)) | inhibition of proliferative activity ([8]; HCT116, 100 µM (highest concentration)) | IC50 [9] [µM] | IC50 ([6]; MTT, 24 h) [µM] | IC50 ([7]; H838, MTT, 24 h) [µM] | IC50 ([8]; HCT116, MTT, 24 h) [µM] |
| --- | --- | --- | --- | --- | --- | --- | --- | --- | --- | --- | --- | --- | --- | --- | --- | --- |
| CC[C@H](C)[C@H](NC(=O)[C@H](CCCCN)NC(=O)[C@@H](NC(=O)[C@H](CO)NC(=O)[C@H](CC(N)=O)NC(=O)[C@H](Cc1c[nH]c2ccccc12)NC(=O)[C@H](CC(C)C)NC(=O)CN)[C@@H](C)CC)C(=O)N[C@@H](C)C(=O)NCC(=O)N[C@@H](CCCCN)C(=O)N[C@@H](CCCCN)C(=O)N[C@@H](CC(C)C)C(=O)N[C@@H](Cc1ccccc1)C(=O)N[C@H](C(=O)N[C@@H](CC(N)=O)C(=O)N[C@H](C(=O)N[C@@H](CC(C)C)C(=O)N[C@@H](CC(=O)O)C(=O)N[C@@H](CCCCN)C(=O)N[C@H](C(=O)N[C@@H](CCCNC(=N)N)C(=O)N[C@H]1CSSC[C@@H](C(=O)O)NC(=O)CNC(=O)CNC(=O)[C@H](C)NC(=O)[C@H](C(C)C)NC(=O)[C@H](CCCCN)NC1=O)[C@@H](C)CC)C(C)C)C(C)C [GL-29] (HELM PEPTIDE1{G.L.W.N.S.I.K.I.A.G.K.K.L.F.V.N.V.L.D.K.I.R.C.K.V.A.G.G.C}$PEPTIDE1,PEPTIDE1,23:R3-29:R3$$$V2.0; N-terminus and C-terminus assumed; bridges inferred) | 5.86 | 33.03 | > 512 | 16 | 5.05 | 100 | 6.3 (≈ 19.7 µg/mL) |  |  |  |  |  |  |  |  |  |
| GLWNSIKIA-NH2 [GL-9, GLWNSIKIA-NH2] |  |  |  |  |  |  |  | >512 | >512 | 20–40% | 20–40% | 20–40% |  |  |  |  |
| GLWNSIKIAGKKLFVNVLDKIR-NH2 [GL-22] | 87.304 | 254.11 | > 512 | 16 | 38.9 |  |  |  |  |  |  |  | 9.36 | 40.6 | 25.2 | 129 |
